In patent US8153596B2, “Use of SH2 STAT3/STAT1 peptidomimetics as anticancer drugs” (University of South Florida, priority 2006, dated 2012) one finds cell growth suppression and IC50 data, which are given here for 4 compounds.

In experiment [1] the test system is v-Src transformed fibroblasts. To be noted: constitutively active STAT3-dependant v-Src transformed fibroblasts; cited from earlier work.
Experiment [2] has as its target T1, STAT3:STAT3 (Homo sapiens, UniProt P40763).
T1 construct: Nuclear extracts containing active STAT1 and STAT3 were preincubated with or without peptidomimetics; endogenous in cells; host or cells: nuclear extracts
The experiment can be described thus: EMSA of STAT3:STAT3 dimer DNA binding, nuclear extracts preincubated with peptidomimetic, radiolabeled hSIE probe. The format is biochemical. On the procedure:
(§1) Evaluation was carried out through pre-incubation of specific concentrations of peptidomimetics with nuclear extracts containing STAT1 and STAT3 for 30 minutes at room temperature before incubation with radiolabeled hSIE oligonucleotide probes and ESMA analysis. Standard peptide synthetic procedures using HBTU and DIPEA were employed to furnish the library of functionalized inhibitors.
as §1

Experiment [3] has as its target T2, STAT1:STAT1 (Homo sapiens, UniProt P42224).
T2 construct: Nuclear extracts containing active STAT1 and STAT3 were preincubated with or without peptidomimetics; endogenous in cells; host or cells: nuclear extracts
T2 sequence (P42224 2-750 limits assumed): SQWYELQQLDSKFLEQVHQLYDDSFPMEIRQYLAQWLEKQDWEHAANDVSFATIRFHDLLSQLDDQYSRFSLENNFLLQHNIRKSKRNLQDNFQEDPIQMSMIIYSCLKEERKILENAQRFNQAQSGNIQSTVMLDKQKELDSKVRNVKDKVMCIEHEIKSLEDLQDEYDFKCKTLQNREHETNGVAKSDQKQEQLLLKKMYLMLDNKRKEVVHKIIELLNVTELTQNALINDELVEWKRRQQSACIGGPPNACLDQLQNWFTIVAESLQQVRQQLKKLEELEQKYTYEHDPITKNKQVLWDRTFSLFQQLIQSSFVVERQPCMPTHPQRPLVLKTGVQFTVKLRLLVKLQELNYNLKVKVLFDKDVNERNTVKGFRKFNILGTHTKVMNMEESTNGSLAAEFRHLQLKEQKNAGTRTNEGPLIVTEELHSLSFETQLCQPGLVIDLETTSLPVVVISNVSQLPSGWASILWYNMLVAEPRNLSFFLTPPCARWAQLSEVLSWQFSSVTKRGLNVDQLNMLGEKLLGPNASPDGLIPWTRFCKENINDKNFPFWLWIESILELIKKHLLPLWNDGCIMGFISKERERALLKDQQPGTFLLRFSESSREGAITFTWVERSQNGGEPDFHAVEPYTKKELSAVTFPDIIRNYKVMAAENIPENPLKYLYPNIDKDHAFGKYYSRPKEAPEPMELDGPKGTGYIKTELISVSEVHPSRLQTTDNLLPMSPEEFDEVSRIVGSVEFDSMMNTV
The experiment can be described thus: EMSA of STAT1:STAT1 dimer DNA binding, nuclear extracts preincubated with peptidomimetic, radiolabeled hSIE probe. In kind it is biochemical. Here is the method:
as §1, §1
(In general: Mobility shift assays separate free from complexed probe on a gel.)

A word on the IC50: it is the concentration needed to halve the response being measured.

“And” between values parts separate entries of the source, which are not always exact repeats. Identical values can stand only once. Like-named read-outs stand apart in the source and are kept apart here.

T1 sequence (P40763 2-770 limits assumed, species assumed): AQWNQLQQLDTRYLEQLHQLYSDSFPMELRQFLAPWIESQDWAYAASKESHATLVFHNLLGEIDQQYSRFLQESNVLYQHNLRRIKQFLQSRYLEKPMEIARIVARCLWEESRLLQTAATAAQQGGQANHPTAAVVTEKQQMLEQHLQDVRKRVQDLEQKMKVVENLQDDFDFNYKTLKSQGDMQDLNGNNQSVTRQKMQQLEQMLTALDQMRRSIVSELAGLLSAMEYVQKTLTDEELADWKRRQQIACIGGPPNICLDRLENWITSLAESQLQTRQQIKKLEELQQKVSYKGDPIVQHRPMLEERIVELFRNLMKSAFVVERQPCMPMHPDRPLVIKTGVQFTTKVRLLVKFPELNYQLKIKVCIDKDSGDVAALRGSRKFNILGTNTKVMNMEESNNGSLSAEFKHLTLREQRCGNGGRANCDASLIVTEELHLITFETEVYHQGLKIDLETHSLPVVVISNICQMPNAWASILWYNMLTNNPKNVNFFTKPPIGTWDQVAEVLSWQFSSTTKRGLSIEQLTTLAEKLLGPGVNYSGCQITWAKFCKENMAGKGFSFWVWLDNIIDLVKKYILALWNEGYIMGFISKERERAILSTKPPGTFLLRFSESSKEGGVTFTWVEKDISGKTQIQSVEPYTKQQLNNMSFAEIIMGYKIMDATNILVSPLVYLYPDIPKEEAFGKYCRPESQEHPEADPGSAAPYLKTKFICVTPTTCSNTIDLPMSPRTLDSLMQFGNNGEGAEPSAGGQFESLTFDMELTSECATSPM

As for `CC(C)CC(NC(=O)C(Cc1ccc(OP(=O)(O)O)cc1)NC(=O)c1ccc(C#N)cc1)C(=O)O` (stereo not shown) [ISS610], the cell growth suppression entry in experiment [1] is “suppress cell growth significantly”. `CC(C)CC(NC(=O)C(Cc1ccc(OP(=O)(O)O)cc1)NC(=O)c1ccc(C#N)cc1)C(=O)NC(C)C` (stereo not shown) [ISS834]: the IC50 in experiment [2] amounted to 760 µM; in experiment [3], 21 µM. On the same counts, the results for `CC(C)CC(NC(=O)C(Cc1ccc(OP(=O)(O)O)cc1)NC(=O)c1ccc(C#N)cc1)C(=O)NC1CCCCC1` (stereo not shown) [ISS836] are 605 µM and 25 µM. For `COc1cccc(NC(=O)[C@H](CC(C)C)NC(=O)[C@H](Cc2ccc(OP(=O)(O)O)cc2)NC(=O)c2ccc(C#N)cc2)c1` [ISS840], the IC50 was 560 µM in experiment [2] (nuclear extracts preincubated 30 min at room temperature, hSIE probe, EMSA, means of three experiments, read-out: STAT3:STAT3 IC50 values); 1.4 µM and 1 µM in experiment [3] (nuclear extracts preincubated 30 min at room temperature, hSIE probe, EMSA, means of three experiments, read-out: STAT1:STAT1 IC50 values).
